Results reported in ChEMBL document CHEMBL5665443, “Enzyme Inhibitor Single Concentration assay results for EUbOPEN Chemogenomics Library” (2024).

Columns and labels:
[1] = biological target: Endonuclease 8-like 1 (Homo sapiens) (UniProt Q96FI4); conditions: Hit No;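 further: fluorescence at 594 nm from quenched duplex DNA oligonucleotides released by NEIL1 cleavage and strand separation, reported as reduction of this enzyme activity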
Description: Inhibition of NEIL1 by quantifying inhibition of NEIL1-mediated cleavage and dissociation of quenched duplex DNA oligonucleotides, measured as fluorescence at 594 nm.

[2] = biological target: G/T mismatch-specific thymine DNA glycosylase (Homo sapiens) (UniProt Q13569); conditions: Hit No;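 further: human TDG cleavage of quenched duplex DNA oligonucleotides coupled to APE1, strand release read as fluorescence at 594 nm, inhibition of TDG activity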
G/T mismatch-specific thymine DNA glycosylase (Homo sapiens), sequence (Q13569 whole entry): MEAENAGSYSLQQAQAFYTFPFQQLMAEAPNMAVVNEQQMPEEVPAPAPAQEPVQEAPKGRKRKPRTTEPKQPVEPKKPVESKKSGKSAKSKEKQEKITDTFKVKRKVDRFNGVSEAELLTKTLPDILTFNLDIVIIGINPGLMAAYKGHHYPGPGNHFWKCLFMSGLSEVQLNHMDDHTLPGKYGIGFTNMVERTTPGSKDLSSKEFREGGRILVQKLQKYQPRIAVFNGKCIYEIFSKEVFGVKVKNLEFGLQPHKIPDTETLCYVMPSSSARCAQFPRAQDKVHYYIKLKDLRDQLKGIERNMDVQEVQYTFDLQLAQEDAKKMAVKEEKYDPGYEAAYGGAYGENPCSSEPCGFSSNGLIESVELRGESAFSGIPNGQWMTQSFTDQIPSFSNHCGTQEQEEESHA
Description: Inhibition of TDG by quantifying inhibition of TDG-mediated cleavage and dissociation of quenched duplex DNA oligonucleotides, measured as fluorescence at 594 nm. To generate a functional strand incision and increase turn-over this assay is coupled to APE1.

[3] = biological target: T1, Endonuclease 8-like 2 (Homo sapiens) (UniProt Q969S2); conditions: Hit No;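 further: fluorescence at 594 nm reports NEIL2 cutting and release of a quenched double-stranded DNA oligo substrate, reduced signal read as inhibition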
T1 sequence (whole entry): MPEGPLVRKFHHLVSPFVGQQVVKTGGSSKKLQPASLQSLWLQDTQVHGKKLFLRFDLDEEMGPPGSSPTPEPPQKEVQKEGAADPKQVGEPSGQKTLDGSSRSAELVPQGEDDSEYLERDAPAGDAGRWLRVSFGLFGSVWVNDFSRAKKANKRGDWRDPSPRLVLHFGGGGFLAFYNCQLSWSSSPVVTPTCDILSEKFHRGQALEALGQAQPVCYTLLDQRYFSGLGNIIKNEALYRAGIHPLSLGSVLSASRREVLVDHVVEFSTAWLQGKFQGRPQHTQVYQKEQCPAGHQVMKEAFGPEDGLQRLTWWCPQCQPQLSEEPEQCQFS
Description: Inhibition of NEIL2 by quantifying inhibition of NEIL2-mediated cleavage and dissociation of quenched duplex DNA oligonucleotides, measured as fluorescence at 594 nm.

[4] = biological target: T2, Single-strand selective monofunctional uracil DNA glycosylase (Homo sapiens) (UniProt Q53HV7); conditions: Hit No;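 further: enzymatic SMUG1 assay coupled with APE1, reading fluorescence at 594 nm released when a quenched double-stranded DNA oligonucleotide substrate is cleaved and separated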
T2 sequence (whole entry): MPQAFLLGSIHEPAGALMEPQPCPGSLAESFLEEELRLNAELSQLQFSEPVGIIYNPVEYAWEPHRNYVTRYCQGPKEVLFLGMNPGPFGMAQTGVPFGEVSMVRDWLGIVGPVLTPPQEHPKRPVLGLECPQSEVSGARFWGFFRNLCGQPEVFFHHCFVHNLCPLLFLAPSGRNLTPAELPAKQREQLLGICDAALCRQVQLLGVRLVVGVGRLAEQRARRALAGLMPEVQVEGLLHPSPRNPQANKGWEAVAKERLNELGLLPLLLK
Description: Inhibition of SMUG1 by quantifying inhibition of SMUG1-mediated cleavage and dissociation of quenched duplex DNA oligonucleotides, measured as fluorescence at 594 nm. To generate a functional strand incision and increase turn-over this assay is coupled to APE1.

[5] = biological target: Uracil-DNA glycosylase (Homo sapiens) (UniProt P13051); conditions: Hit No;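 further: UNG excision on a quenched double-stranded DNA oligo probe, with APE1 added for strand incision and turnover, read as fluorescence at 594 nm as strands separate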
Uracil-DNA glycosylase (Homo sapiens), sequence (P13051 whole entry): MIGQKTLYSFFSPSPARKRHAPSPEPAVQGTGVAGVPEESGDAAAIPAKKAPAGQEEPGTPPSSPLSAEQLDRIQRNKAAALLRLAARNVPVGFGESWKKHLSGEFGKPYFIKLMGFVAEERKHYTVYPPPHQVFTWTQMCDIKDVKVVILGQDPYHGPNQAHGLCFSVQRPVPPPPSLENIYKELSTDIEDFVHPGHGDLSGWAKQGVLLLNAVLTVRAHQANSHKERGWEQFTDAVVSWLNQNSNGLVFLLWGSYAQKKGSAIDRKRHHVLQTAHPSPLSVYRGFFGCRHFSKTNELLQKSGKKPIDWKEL
Description: Inhibition of UNG by quantifying inhibition of UNG-mediated cleavage and dissociation of quenched duplex DNA oligonucleotides, measured as fluorescence at 594 nm. To generate a functional strand incision and increase turn-over this assay is coupled to APE1.

[6] = biological target: N-glycosylase/DNA lyase (Homo sapiens) (UniProt O15527);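 further: OGG1 cleavage of a quenched duplex DNA oligonucleotide, coupled to APE1 for strand incision, read as fluorescence at 594 nm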
N-glycosylase/DNA lyase (Homo sapiens), sequence (O15527 whole entry): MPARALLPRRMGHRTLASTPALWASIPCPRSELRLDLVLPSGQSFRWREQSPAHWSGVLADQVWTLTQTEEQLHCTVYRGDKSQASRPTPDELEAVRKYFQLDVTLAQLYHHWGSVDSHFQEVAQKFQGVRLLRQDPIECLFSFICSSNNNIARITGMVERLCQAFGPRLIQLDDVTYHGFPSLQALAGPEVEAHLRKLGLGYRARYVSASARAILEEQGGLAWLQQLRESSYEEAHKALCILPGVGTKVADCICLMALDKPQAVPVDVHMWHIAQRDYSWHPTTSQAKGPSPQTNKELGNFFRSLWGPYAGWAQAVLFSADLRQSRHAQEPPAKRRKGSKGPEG
Description: Inhibition of OGG1 by quantifying inhibition of OGG1-mediated cleavage and dissociation of quenched duplex DNA oligonucleotides, measured as fluorescence at 594 nm. To generate a functional strand incision and increase turn-over this assay is coupled to APE1.

[7] = biological target: T3, Endonuclease III-like protein 1 (Homo sapiens) (UniProt P78549); conditions: Hit No;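 further: enzyme assay tracking NTHL1 cutting and release of a quenched double-stranded DNA oligo substrate, read as fluorescence at 594 nm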
T3 sequence (whole entry): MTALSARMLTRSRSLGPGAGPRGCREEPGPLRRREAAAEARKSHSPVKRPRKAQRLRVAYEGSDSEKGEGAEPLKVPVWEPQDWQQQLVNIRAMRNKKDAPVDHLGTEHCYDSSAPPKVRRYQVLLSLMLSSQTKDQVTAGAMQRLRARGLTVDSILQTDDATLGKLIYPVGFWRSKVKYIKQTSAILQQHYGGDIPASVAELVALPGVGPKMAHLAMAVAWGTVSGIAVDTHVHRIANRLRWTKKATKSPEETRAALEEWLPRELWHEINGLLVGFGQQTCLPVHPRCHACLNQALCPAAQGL
Description: Inhibition of NTHL1 by quantifying inhibition of NTHL1-mediated cleavage and dissociation of quenched duplex DNA oligonucleotides, measured as fluorescence at 594 nm.

[8] = biological target: T4, Adenine DNA glycosylase (Homo sapiens) (UniProt Q9UIF7); conditions: Hit No;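 further: human MUTYH activity read as 594 nm fluorescence from cleavage and release of a quenched DNA duplex, coupled with APE1 for strand incision, lower signal meaning inhibition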
T4 sequence (whole entry): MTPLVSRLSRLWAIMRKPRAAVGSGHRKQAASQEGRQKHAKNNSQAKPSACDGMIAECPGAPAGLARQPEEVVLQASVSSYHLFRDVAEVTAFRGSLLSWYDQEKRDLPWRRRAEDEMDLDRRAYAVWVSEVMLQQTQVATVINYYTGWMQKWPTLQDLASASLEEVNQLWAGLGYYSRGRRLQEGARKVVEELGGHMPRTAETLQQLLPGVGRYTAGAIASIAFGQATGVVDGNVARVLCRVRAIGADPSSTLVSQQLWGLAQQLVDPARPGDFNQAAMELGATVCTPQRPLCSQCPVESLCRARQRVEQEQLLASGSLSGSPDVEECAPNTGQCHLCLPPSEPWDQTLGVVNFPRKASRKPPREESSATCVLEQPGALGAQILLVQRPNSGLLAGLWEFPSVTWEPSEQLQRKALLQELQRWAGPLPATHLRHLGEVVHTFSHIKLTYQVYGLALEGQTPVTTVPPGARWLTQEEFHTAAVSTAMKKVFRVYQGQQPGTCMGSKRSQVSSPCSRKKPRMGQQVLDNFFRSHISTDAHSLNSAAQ
Description: Inhibition of MUTYH by quantifying inhibition of MUTYH-mediated cleavage and dissociation of quenched duplex DNA oligonucleotides, measured as fluorescence at 594 nm. To generate a functional strand incision and increase turn-over this assay is coupled to APE1.

[9] = biological target: Methyl-CpG-binding domain protein 4 (Homo sapiens) (UniProt O95243); conditions: Hit No;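 further: MBD4 activity read as fluorescence at 594 nm from cleavage and release of a quenched duplex DNA oligonucleotide, with APE1 coupled to incise the strand and raise turnover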
Methyl-CpG-binding domain protein 4 (Homo sapiens), sequence (O95243 whole entry, the tested form may be a part): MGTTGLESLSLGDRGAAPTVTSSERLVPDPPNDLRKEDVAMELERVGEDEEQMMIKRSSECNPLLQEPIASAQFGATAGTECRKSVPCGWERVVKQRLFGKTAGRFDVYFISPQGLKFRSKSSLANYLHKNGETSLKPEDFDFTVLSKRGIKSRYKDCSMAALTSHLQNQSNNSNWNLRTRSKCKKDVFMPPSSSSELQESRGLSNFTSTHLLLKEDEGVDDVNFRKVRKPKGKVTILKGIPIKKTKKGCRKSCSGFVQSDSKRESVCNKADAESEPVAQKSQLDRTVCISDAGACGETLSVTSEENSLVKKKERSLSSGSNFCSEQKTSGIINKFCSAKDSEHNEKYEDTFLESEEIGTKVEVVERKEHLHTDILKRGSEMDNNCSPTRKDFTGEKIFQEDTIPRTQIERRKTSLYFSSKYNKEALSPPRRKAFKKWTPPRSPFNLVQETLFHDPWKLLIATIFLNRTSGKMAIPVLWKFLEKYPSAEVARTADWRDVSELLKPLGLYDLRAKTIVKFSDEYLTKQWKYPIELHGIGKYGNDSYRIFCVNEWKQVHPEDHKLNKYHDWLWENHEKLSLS
Description: Inhibition of MBD4 by quantifying inhibition of MBD4-mediated cleavage and dissociation of quenched duplex DNA oligonucleotides, measured as fluorescence at 594 nm. To generate a functional strand incision and increase turn-over this assay is coupled to APE1.

[10] = Compound Concentration 10.0 uM, Hit No

Endonuclease 8-like 1 (Homo sapiens), sequence (Q96FI4 whole entry): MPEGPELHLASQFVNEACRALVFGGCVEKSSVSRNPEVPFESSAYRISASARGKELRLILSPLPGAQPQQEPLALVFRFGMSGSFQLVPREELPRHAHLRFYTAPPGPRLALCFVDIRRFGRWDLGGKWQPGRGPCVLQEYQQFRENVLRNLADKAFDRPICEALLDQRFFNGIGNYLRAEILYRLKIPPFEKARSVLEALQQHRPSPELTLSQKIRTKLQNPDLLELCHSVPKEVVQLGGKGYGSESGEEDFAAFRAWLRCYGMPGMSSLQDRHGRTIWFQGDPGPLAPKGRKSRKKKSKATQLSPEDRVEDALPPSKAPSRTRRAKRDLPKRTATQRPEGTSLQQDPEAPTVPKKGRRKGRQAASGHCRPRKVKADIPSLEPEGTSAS

Compound | inhibition ([1]; Compound Concentration 10.0 uM) [%] | inhibition ([2]; Compound Concentration 10.0 uM) [%] | inhibition ([3]; Compound Concentration 10.0 uM) [%] | inhibition ([4]; Compound Concentration 10.0 uM) [%] | inhibition ([5]; Compound Concentration 10.0 uM) [%] | inhibition [6, 10] [%] | inhibition ([7]; Compound Concentration 10.0 uM) [%] | inhibition ([8]; Compound Concentration 10.0 uM) [%] | inhibition ([9]; Compound Concentration 10.0 uM) [%] | inhibition ([2]; Compound Concentration 1.0 uM) [%] | inhibition ([4]; Compound Concentration 1.0 uM) [%] | inhibition ([5]; Compound Concentration 1.0 uM) [%] | inhibition ([7]; Compound Concentration 1.0 uM) [%] | inhibition ([8]; Compound Concentration 1.0 uM) [%] | inhibition ([1]; Compound Concentration 1.0 uM) [%] | inhibition ([6]; Compound Concentration 1.0 uM, Hit No) [%] | inhibition ([9]; Compound Concentration 1.0 uM) [%] | inhibition ([6]; Compound Concentration 10.0 uM, Hit Yes) [%] | inhibition ([3]; Compound Concentration 1.0 uM) [%]
Cc1nc(C#Cc2ccnc(Cl)c2)c(C)n1-c1ccc(OC(F)(F)F)cc1 | -9.4 | 20.9 | 5.26 | 5 | -8.09 | -0.162 | 7.05 | 14 | – | – | – | – | – | – | – | – | – | – | –
CC(C)(C)c1ccc2c(c1)CC[C@H]2NC(=O)Nc1cccc2[nH]ncc12 | 7.86 | -8.31 | -4.17 | 11.7 | -4.28 | -2.36 | 3.04 | -7.76 | – | – | – | – | – | – | – | – | – | – | –
O=C1c2cccc3c2[C@H](CCC3)CN1[C@@H]1CN2CCC1CC2 | -2.96 | 0.841 | – | -4.7 | -7.93 | – | 3.04 | -5.22 | 0.552 | – | – | – | – | – | – | – | – | – | –
O=C(O)c1cc(-c2ccc(C3CCNCC3)cc2)c2ccc(-c3ccc(C(F)(F)F)cc3)cc2c1 | -1.45 | 20.1 | 1.86 | -1.19 | 0.968 | -4.86 | 2.15 | 10.9 | – | – | – | – | – | – | – | – | – | – | –
Cc1ccccc1N1CCN(CCc2nnc3n2CCCC3)CC1 | 0.834 | 4.82 | -1.98 | -1.58 | – | – | -6.14 | 7.44 | -9.49 | – | – | – | – | – | – | – | – | – | –
COc1cc(-c2cn([C@H]3CCc4ccccc4N(CC(F)(F)F)C3=O)nn2)ccc1-n1ccc(C)n1 | – | 24.5 | 12.5 | 8.81 | 8.95 | – | -9.83 | -8.57 | -5.88 | – | – | – | – | – | – | – | – | – | –
H-LVVYPWT-OH | 7.27 | 8.08 | 2.2 | – | -2.47 | -2.03 | 14.6 | 8.4 | 9.67 | – | – | – | – | – | – | – | – | – | –
c1ccc(N2CCN(Cc3nc4ccccc4[nH]3)CC2)nc1 | – | 29.5 | – | – | -4.15 | -5.49 | 0.934 | 2.22 | 29.2 | – | – | – | – | – | – | – | – | – | –
COc1ccc(CN(CCN(C)C)c2ccccn2)cc1 | 2.61 | 2.93 | -3.23 | – | – | -6.42 | 21.7 | 4.88 | -9.78 | – | – | – | – | – | – | – | – | – | –
CC#CC(=O)N1CCC[C@H]1c1nc(-c2ccc(C(=O)Nc3ccccn3)cc2)c2c(N)nccn12 | – | 55.9 | – | – | 4.65 | 1.98 | -7.58 | 0.794 | -0.914 | – | – | – | – | – | – | – | – | – | –
CS(=O)(=O)NC[C@H]1CC[C@H](Nc2nc3c(s2)CCSc2ccccc2-3)CC1 | -5.25 | 2.85 | 8.25 | -4.83 | -8.36 | -8.83 | 34.9 | -5.74 | – | – | – | – | – | – | – | – | – | – | –
OCCn1cc(-c2cnc3nnn(Cc4ccc5ncccc5c4)c3n2)cn1 | 2.52 | 49.5 | -5.15 | 18.6 | -1.44 | -5.86 | -9.68 | 0.369 | – | – | – | – | – | – | – | – | – | – | –
COc1ccccc1S(=O)(=O)Nc1ccc(C)cc1Oc1ccc2c(N)nccc2c1 | 11 | 9.87 | 7.55 | – | -1.95 | -5.28 | 17.1 | 3.09 | 10.2 | – | – | – | – | – | – | – | – | – | –
Cc1cc(NC(=O)c2cccc(S(F)(F)(F)(F)F)c2)cc(-n2ccn3nc(-c4cccnc4)cc23)c1 | – | 17.7 | -7.89 | 3.64 | 0.948 | – | 7.92 | – | 4.59 | 54.6 | 19.3 | 1.8 | -2 | 16 | – | – | – | – | –
N[C@@H]1c2cccnc2[C@H](OC(=O)N2CCC(n3c(=O)[nH]c4ncccc43)CC2)CC[C@H]1c1cccc(F)c1F | -2.58 | 6.23 | 0.515 | -4.73 | – | -5.76 | -6.14 | -2.28 | – | – | – | – | – | – | – | – | – | – | –
Cc1cccc([C@H](C)c2c[nH]cn2)c1C | -5.1 | 18.4 | 7.25 | -5.51 | – | -7.75 | -4.67 | 5.65 | – | – | – | – | – | – | – | – | – | – | –
CNc1nc(Nc2cnn([C@H]3CCN(C4COC4)C[C@@H]3F)c2Cl)ncc1C(F)(F)F | – | – | – | – | – | – | – | – | – | 39.4 | 15 | 2.4 | -6.19 | -1.03 | -2.24 | -2.93 | – | – | –
Clc1ccc(OC[C@H]2CCN2)cn1 | -0.584 | – | -6.72 | – | -3.96 | -5.75 | 5.52 | -6.13 | -2.21 | – | – | – | – | – | – | – | – | – | –
CCCCC(=O)N(Cc1ccc(-c2ccccc2-c2nnn[nH]2)cc1)[C@H](C(=O)O)C(C)C | 0.537 | 0.584 | 1.76 | – | – | -4.35 | 1.92 | 34.3 | -9.61 | – | – | – | – | – | – | – | – | – | –
C[C@@H](Oc1cc(-n2cnc3ccc(CN4CCN(C)CC4)cc32)sc1C(N)=O)c1ccccc1C(F)(F)F | – | – | – | – | – | – | – | – | – | 50 | 26.8 | 5.21 | -6.19 | 6.26 | -0.655 | – | 15.4 | – | –
N[C@@H](Cc1cc(I)c(Oc2ccc(O)c(I)c2)c(I)c1)C(=O)O | -7.26 | 102 | – | – | 5.16 | 4.51 | -3.92 | 10.3 | 68.9 | – | – | – | – | – | – | – | – | – | –
CSCC[C@H](NC(=O)[C@H](Cc1ccccc1)NC(=O)[C@H](Cc1c[nH]cn1)NC(=O)CNC(=O)[C@@H](NC(=O)[C@H](C)NC(=O)[C@H](Cc1c[nH]c2ccccc12)NC(=O)[C@H](CC(C)C)NC(=O)[C@H](CC(N)=O)NC(=O)CN)[C@@H](C)O)C(N)=O | 10.5 | -7.68 | -6.21 | – | -8.29 | – | 8.82 | 11.4 | -1.83 | – | – | – | – | – | – | – | – | – | –
N#Cc1c(N)nc(SCc2csc(-c3ccc(Cl)cc3)n2)c(C#N)c1-c1ccc(OCCO)cc1 | – | 6.03 | – | – | -1.02 | – | 4.7 | 7.45 | -6.16 | – | – | – | – | – | – | – | – | 55.1 | –
CN1CCN(c2cc(-c3ccccc3)nc(N)n2)CC1 | -2.28 | 1.13 | 7 | – | -9.1 | – | 9.99 | -4.71 | -3.57 | – | – | – | – | – | – | – | – | – | –
Cc1c[nH]c2nccc(Oc3c(F)cc(Nc4cc(Cl)nc(N)n4)cc3F)c12 | – | – | – | – | – | – | – | – | – | 54.4 | 20.7 | 4.99 | -0.432 | 11.7 | – | – | 43.9 | – | 3.69
Cc1nc(N2CC[C@@H](O)C2)ncc1-c1cc(C(F)(F)F)cc2[nH]ncc12 | – | 48 | – | 10.3 | -1.48 | – | -5.89 | -2.45 | 58.5 | – | – | – | – | – | – | – | – | – | –
